The values that follow come from US12030878B2 (BRISTOL-MYERS SQUIBB COMPANY, priority 2017, dated 2024).

Where only a bound is given, the exact number is not on record here.

For orientation: IC50 means the concentration at which inhibition is half-maximal.

Format in all cases: cell-based
The target of one assay is T1, human TLR7 (Homo sapiens, UniProt Q9NYK1).
T1 construct: host or cells: HEK-Blue cells
T1 sequence (Q9NYK1 27-1049): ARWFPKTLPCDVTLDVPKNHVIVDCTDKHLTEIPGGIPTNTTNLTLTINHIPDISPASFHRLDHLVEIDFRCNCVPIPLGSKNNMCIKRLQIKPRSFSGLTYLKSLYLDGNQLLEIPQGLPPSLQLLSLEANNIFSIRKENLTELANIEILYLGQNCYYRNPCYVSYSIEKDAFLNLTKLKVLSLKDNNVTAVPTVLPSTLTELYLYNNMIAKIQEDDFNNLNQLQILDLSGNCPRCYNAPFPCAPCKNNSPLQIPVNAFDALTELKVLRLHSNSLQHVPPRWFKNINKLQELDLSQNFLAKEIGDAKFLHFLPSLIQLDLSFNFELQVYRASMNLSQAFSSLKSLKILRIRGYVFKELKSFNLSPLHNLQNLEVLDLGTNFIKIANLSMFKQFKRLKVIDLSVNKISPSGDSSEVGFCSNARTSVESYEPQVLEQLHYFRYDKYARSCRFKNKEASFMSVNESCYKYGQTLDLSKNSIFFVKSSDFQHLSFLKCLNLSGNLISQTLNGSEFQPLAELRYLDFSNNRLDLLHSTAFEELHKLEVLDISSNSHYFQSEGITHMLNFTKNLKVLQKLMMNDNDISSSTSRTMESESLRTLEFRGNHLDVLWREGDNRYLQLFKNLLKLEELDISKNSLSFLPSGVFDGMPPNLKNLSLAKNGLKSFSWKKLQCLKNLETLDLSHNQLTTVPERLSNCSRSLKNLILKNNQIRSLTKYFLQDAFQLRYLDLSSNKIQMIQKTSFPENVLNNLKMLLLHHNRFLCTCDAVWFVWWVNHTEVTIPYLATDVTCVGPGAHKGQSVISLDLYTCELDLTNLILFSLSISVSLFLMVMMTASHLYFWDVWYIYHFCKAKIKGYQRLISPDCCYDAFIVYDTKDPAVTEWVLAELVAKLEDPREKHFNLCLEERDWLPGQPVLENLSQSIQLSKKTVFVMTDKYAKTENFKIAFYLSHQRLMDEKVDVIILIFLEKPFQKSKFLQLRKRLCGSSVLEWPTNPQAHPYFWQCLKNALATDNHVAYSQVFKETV
In words: TLR7 inhibition reporter assay (HEK-Blue SEAP). Conditions: HEK-Blue cells overexpressing human TLR7, stimulated with gardiquimod 7.5 μM, 22 hour incubation. An outline of the steps: (§1)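 SEAP read-out via HEK-Blue Detection medium after 22 h at 37 °C; percent inhibition relative to agonist-plus-DMSO and known-inhibitor wells. Agonists: TLR7 gardiquimod 7.5 μM, TLR8 R848 15.9 μM, TLR9 ODN2006 5 nM. Dose range 0.05 nM–50 μM, 30 min compound pre-treatment at RT.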
Background: A reporter such as luciferase makes a cellular process visible.

Another assay has as its target T2, human TLR8 (Homo sapiens, UniProt Q9NR97).
T2 construct: host or cells: HEK-Blue cells
T2 sequence (Q9NR97 27-1041): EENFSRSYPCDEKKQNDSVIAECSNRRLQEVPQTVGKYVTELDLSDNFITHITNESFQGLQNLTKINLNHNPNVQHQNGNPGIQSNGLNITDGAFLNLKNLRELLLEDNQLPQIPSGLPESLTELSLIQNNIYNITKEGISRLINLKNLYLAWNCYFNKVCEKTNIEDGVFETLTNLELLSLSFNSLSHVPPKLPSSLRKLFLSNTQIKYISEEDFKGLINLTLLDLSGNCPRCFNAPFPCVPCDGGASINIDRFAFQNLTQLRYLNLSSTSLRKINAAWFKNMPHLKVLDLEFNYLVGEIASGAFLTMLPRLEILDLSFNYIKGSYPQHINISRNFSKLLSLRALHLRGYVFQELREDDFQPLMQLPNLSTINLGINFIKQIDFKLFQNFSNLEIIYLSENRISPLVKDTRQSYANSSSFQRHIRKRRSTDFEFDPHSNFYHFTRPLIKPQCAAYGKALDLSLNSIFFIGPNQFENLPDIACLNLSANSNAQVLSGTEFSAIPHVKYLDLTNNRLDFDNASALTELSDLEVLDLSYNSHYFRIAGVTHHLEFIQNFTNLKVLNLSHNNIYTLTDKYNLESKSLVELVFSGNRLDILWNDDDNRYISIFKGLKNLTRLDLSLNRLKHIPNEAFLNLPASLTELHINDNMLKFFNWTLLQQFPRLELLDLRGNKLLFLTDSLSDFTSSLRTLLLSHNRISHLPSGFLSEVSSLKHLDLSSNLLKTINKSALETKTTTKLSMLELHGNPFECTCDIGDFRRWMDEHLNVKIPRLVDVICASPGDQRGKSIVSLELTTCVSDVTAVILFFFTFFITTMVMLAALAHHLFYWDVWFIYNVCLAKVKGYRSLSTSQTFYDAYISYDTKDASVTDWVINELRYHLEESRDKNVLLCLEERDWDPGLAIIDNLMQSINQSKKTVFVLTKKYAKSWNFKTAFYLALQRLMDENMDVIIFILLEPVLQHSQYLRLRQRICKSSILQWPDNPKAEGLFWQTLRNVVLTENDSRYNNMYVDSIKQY
In words: TLR8 inhibition reporter assay (HEK-Blue SEAP). The settings on record: HEK-Blue cells overexpressing human TLR8, stimulated with R848 15.9 μM, 22 hour incubation. An outline of the steps: as §1

In another assay the target is T3, human TLR9 (Homo sapiens, UniProt Q9NR96).
T3 construct: host or cells: HEK-Blue cells
T3 sequence (Q9NR96 26-1032): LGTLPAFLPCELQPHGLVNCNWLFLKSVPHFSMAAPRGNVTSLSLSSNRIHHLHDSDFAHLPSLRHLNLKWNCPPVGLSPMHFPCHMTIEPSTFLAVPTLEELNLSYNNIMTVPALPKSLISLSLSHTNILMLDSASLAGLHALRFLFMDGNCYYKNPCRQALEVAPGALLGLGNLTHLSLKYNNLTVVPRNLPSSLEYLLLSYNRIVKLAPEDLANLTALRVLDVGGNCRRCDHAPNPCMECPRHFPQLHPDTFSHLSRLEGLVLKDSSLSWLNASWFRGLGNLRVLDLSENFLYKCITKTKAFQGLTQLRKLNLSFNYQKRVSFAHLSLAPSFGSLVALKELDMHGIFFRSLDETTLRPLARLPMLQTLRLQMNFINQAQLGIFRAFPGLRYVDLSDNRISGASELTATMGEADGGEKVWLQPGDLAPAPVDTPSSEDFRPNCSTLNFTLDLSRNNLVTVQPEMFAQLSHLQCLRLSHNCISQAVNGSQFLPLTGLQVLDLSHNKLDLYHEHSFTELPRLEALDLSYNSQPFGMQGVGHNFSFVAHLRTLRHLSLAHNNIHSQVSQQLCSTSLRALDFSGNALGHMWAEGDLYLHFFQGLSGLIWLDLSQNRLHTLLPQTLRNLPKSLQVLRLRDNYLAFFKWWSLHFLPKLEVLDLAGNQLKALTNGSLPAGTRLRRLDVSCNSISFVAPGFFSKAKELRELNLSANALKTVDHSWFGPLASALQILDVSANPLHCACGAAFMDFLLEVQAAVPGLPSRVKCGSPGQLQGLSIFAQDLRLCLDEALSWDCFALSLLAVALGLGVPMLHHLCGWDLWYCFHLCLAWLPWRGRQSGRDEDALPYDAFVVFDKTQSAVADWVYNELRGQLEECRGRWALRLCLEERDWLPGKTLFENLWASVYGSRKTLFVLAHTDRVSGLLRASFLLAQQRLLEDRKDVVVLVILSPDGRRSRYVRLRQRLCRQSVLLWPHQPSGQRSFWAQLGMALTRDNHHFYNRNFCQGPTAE
In words: TLR9 inhibition reporter assay (HEK-Blue SEAP). The settings on record: HEK-Blue cells overexpressing human TLR9, stimulated with ODN2006 5 nM, 22 hour incubation. The method in brief: as §1

As for `Cc1c(-c2[nH]c3ccc(OC4CCN(C(=O)CN(C)C)CC4)cc3c2C(C)C)cn(C)c(=O)c1C` [Example 104, 5-(5-((1-(dimethylglycyl)piperidin-4-yl)oxy)-3-isopropyl-1H-indol-2-yl)-1,3,4-trimethylpyridin-2(1H)-one], the IC50 was found to be 7.8 nM against human TLR7, 16.2 nM on human TLR8 and 5110 nM on human TLR9.

Consider `Cc1c(-c2[nH]c3ccc(OC4CCN(C(=O)CN(C)C)CC4)cc3c2C(C)C)cn2cnnc2c1C` [Example 105, 1-(4-((2-(7,8-dimethyl-[1,2,4]triazolo[4,3-a]pyridin-6-yl)-3-isopropyl-1H-indol-5-yl)oxy)piperidin-1-yl)-2-(dimethylamino)ethan-1-one], for which the IC50 against human TLR7 amounted to 2.9 nM; on human TLR8, 50.2 nM; against human TLR9 it was 1560 nM.

Consider `Cc1c(-c2[nH]c3ccc(OCC4CCN(C(=O)CN(C)C)CC4)cc3c2C(C)C)cn2cnnc2c1C` [Example 106, 1-(4-(((2-(7,8-dimethyl-[1,2,4]triazolo[4,3-a]pyridin-6-yl)-3-isopropyl-1H-indol-5-yl)oxy)methyl)piperidin-1-yl)-2-(dimethylamino)ethan-1-one], for which the half-maximal inhibitory concentration (IC50) against human TLR7 is 4.6 nM; on human TLR8, 57.8 nM; on human TLR9, 2110 nM.

With `Cc1cc(-c2[nH]c3ccc(OCC4CN(C(=O)CN(C)C)C4)cc3c2C(C)C)cn2ncnc12` [Example 107, 2-(dimethylamino)-1-(3-(((3-isopropyl-2-(8-methyl-[1,2,4]triazolo[1,5-a]pyridin-6-yl)-1H-indol-5-yl)oxy)methyl)azetidin-1-yl) ethan-1-one], the figures for the 50% inhibitory concentration (IC50) at human TLR7, at human TLR8 and at human TLR9 were 0.6 nM, 9.4 nM and 3160 nM, respectively.

As for `Cc1c(-c2[nH]c3ccc(OCC4CN(C(=O)CN(C)C)C4)cc3c2C(C)C)cn2cnnc2c1C` [Example 108, 1-(3-(((2-(7,8-dimethyl-[1,2,4]triazolo[4,3-a]pyridin-6-yl)-3-isopropyl-1H-indol-5-yl)oxy)methyl)azetidin-1-yl)-2-(dimethylamino) ethan-1-one], the IC50 on human TLR7 is 14.6 nM; against human TLR8, 124 nM; on human TLR9, 852 nM.

`CNCC(=O)N1CCC(Oc2ccc3[nH]c(-c4cc(C)nc(C)c4)c(C(C)C)c3c2)CC1` [Example 109, 1-(4-((2-(2,6-dimethylpyridin-4-yl)-3-isopropyl-H-indol-5-yl)oxy)piperidin-1-yl)-2-(methylamino)ethanone]: the 50% inhibitory concentration (IC50) at human TLR7 was determined as 1.9 nM; against human TLR8 it was 10 nM; at human TLR9, 300 nM.

On to `CNC(=O)CN1CCC(COc2ccc3[nH]c(-c4cc(C)nc(C)c4)c(C(C)C)c3c2)CC1` [Example 110, 2-(4-(((2-(2,6-dimethylpyridin-4-yl)-3-isopropyl-1H-indol-5-yl)oxy)methyl)piperidin-1-yl)-N-methylacetamide], for which the figures for the IC50 against human TLR7, on human TLR8 and at human TLR9 were 9.6 nM, 7.3 nM and 492 nM, respectively.

For `CNC(=O)CN1CCC(COc2ccc3[nH]c(-c4cc(C)c(=O)n(C)c4)c(C(C)C)c3c2)CC1` [Example 111, 2-(4-(((2-(1,5-dimethyl-6-oxo-1,6-dihydropyridin-3-yl)-3-isopropyl-1H-indol-5-yl)oxy)methyl)piperidin-1-yl)-N-methylacetamide], the IC50 against human TLR7 was found to be 14.2 nM; on human TLR8, 6.8 nM; against human TLR9, 46800 nM.

As to `CNC(=O)CN1CCC(Oc2ccc3[nH]c(-c4cc(C)c(=O)n(C)c4)c(C(C)C)c3c2)CC1` [Example 112, 2-(4-((2-(1,5-dimethyl-6-oxo-1,6-dihydropyridin-3-yl)-3-isopropyl-1H-indol-5-yl)oxy)piperidin-1-yl)-N-methylacetamide], the 50% inhibitory concentration (IC50) is 10.2 nM against human TLR7, 8.9 nM at human TLR8 and > 50000 nM against human TLR9.

Regarding `CNC(=O)CN1CCC(COc2ccc3[nH]c(-c4cc(C)c5ncnn5c4)c(C(C)C)c3c2)CC1` [Example 113, 2-(4-(((3-isopropyl-2-(8-methyl-[1,2,4]triazolo[1,5-a]pyridin-6-yl)-1H-indol-5-yl)oxy)methyl)piperidin-1-yl)-N-methylacetamide], the IC50 on human TLR7 was found to be 1.4 nM; on human TLR8, 7.6 nM; on human TLR9 it was 6690 nM.

On to `CNC(=O)CN1CCC(Oc2ccc3[nH]c(-c4cc(C)c5ncnn5c4)c(C(C)C)c3c2)CC1` [Example 114, 2-(4-((3-isopropyl-2-(8-methyl-[1,2,4]triazolo[1,5-a]pyridin-6-yl)-1H-indol-5-yl)oxy)piperidin-1-yl)-N-methylacetamide], for which the IC50 against human TLR7 was found to be 1 nM; against human TLR8 it was 5.1 nM; against human TLR9, 31600 nM.

Consider `CNC(=O)CN1CCC(COc2ccc3[nH]c(-c4cn(C)c(=O)c(C)c4C)c(C(C)C)c3c2)CC1` [Example 116, 2-(4-(((3-isopropyl-2-(1,4,5-trimethyl-6-oxo-1,6-dihydropyridin-3-yl)-1H-indol-5-yl)oxy)methyl)piperidin-1-yl)-N-methylacetamide], for which the IC50 against human TLR7 was 16.1 nM; against human TLR8, 5.3 nM; against human TLR9 it was 17000 nM.
